Laboratory results as given in patent US20200223889A1, “Bicyclic Compounds Capable of Binding to Melanocortin 4 Receptor” (Novo Nordisk A/S, priority 2017, published 2020).
Read-outs that look alike come from different tables or passages of the source. Starred links: 1 amine or outer side, 2 acyl side, 3 side chain; linkers in the order of their positions; H or OH if unused. Positions of bridges follow the written chain, without caps; N, C: chain ends. Non-standard residues stand in square brackets, D forms with d. Residues, ends and D or L forms follow the SMILES beside them. Hyp = O=C(O)[C@@H]1C[C@@H](O)CN1; d(hCys) = N[C@H](CCS)C(=O)O; Orn = NCCC[C@H](N)C(=O)O; Thz = O=C(O)[C@@H]1CSCN1; Ac4c = NC1(C(=O)O)CCC1; X1 = C(CN[*:2])CS[*:1]; CH2 = C([*:1])[*:2]; βAla = NCCC(=O)O

Tests used:
[1] = target: T1, human MC4R (Homo sapiens, UniProt P32245); assay: 125NDP-α-MSH competitive binding to membranes of BHK cells expressing human MC4 receptor (filtration assay)
T1 construct: expressed in transfected cells
T1 sequence (P32245 whole entry): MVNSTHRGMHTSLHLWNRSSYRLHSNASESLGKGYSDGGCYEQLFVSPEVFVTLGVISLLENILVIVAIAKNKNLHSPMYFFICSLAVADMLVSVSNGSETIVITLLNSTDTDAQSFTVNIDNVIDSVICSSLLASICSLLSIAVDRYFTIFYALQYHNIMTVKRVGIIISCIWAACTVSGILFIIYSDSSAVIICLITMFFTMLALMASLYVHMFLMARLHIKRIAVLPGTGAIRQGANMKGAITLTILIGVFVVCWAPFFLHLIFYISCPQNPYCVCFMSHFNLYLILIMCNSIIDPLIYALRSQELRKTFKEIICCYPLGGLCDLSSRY
Description: In Vitro ^125NDP-α-MSH Binding to Recombinant BHK Cells Expressing Human MC4 Receptor (Filtration Assay)
In order to assess the binding affinity of the selected compounds for the human MC4R competitive binding assays was performed with radiolabeled NDP-alpha MSH (^125NDP-α-MSH).
The assay was performed in 96-well filterplates (Unifilter) using BHK cells stably expressing the human MC4 receptor.
The BHK cell membranes were prepared from frozen or fresh cells that were homogenized in 20 mM HEPES pH 7.1, 5 mM MgCl2, 1 mg/ml bacitracin (buffer 1) and centrifuged at 15000 rpm at 4° C., 10 min in a Sorvall RC 5B plus, SS-34 rotor. The supernatant was discarded, and the pellets were re-suspended in buffer 1, homogenized and centrifuged two more times. The final pellets were re-suspended in buffer 1 and the protein concentration was measured and adjusted with buffer 1 to 5 mg/ml and the membrane preparation was kept at −80° C. until assay. The assay was run on a dilution of this cell membrane suspension without any further preparation. The suspension was diluted to give maximally 10% specific binding, i.e. to approx. 50-100 fold dilution, optimized after each membrane preparation. The assay was performed in a total volume of 200 μl: 50 μl of cell suspension, 50 μl of ^125NDP-α-MSH (apx. […] in final concentration), 50 μl of test compound and 50 μl binding buffer were mixed and incubated for 2 h at 25° C. (binding buffer: 25 mM HEPES, pH 7.0, 1 mM CaCl2), 1 mM MgSO4, 1 mM EGTA, 0.005% Tween™ 20 and 0.1% HSA or, alternatively, 0.1% ovalbumin (Sigma; catalogue No. A-5503)). Test compounds were dissolved in 100% DMSO and diluted in binding buffer in a dose range from 1 μM to 0.001 nM. Radiolabelled ligand and membranes were diluted in binding buffer. The incubation was stopped by dilution with 8×100 μl ice-cold 0.9% NaCl. The radioactivity retained on the filters was counted using a Packard Topcounter. The data were analysed by non-linear regression analysis of binding curves, using the Windows™ program GraphPad™ Prism (GraphPad Software, USA).

[2] = target: T1, human MC4R; assay: Functional cAMP assay (CisBio HTRF) in BHK cells expressing human MC4R; assay type: cell-based; conditions: for MC1R/MC4R cAMP EC50 ratio: MC1R cAMP EC50 divided by MC4R cAMP EC50
Description: In order to assess the potency of the compounds on human MC1R and human MC4R cAMP signalling was measured.
cAMP induction was measured by c-AMPdynamic2 assay, HTRF 62AM4PEC system from CisBio for the human MC1R and human MC4R according to the protocol provided by the vendor. BHK cells expressing the human MC1 or MC4 receptor were generated by stable transfection with expression vectors encoding the cDNA of either MC1R or MC4R.
In details; 25 μl compound—or standard solution were added in the respective wells. Compound was reconstituted in buffer (DMEM w/o phenol red, 10 mM
Hepes, lx Glutamine, 0.1% OV-albumin1, 1 mM IBMX) and serially diluted starting at 2 μM, 10-fold seven times. Dilutions were carried out in the same aforementioned buffer to the desired working concentration ranges (2× higher than the final concentration). 25 μl cell solution was then added and allowed to incubate for 30 min while lightly shaking, at 25° C. […] The provided components for the assay were reconstituted according to the CisBio assay protocol “3.1 supplied reagents and preparation procedure” in MilliQ purification system H2O and diluted 1:20 in lysis buffer. 25 μl cAMP-d2 and 25 μl Cryptate conjugate were added to all wells.
Plates were centrifuged at 1500 rpm for 30 sec and incubated for 1 h, lightly shaking, at 25° C. in a hotel stacker. The plates were read on Mithras LB 940 provided by Berthold Technologies The data were analysed by non-linear regression analysis of binding curves, using the Windows™ program GraphPad™ Prism (GraphPad Software, USA).
The latter is used when no full curve can be obtained in the concentration ranges indicated above.

[3] = human MC4R, BHK cell membranes, 125NDP-α-MSH radioligand, read-out: MC4R binding Ki
[4] = BHK cells expressing human MC4R, '>' = highest dose used with no response, read-out: MC4R cAMP EC50

| Compound | Ki [1, 3] [nM] | EC50 [2, 4] [nM] | MC1R/MC4R cAMP EC50 ratio [2] | Ki [1] [nM] | EC50 [2] [nM] |
| --- | --- | --- | --- | --- | --- |
| N=C(N)NCCC[C@@H]1NC(=O)[C@@H](Cc2ccccc2)NC(=O)[C@H](Cc2c[nH]cn2)NC(=O)CNC(=O)[C@@H]2CSSC[C@H](NC(=O)[C@H](Cc3c[nH]c4ccccc34)NC1=O)C(=O)NCC(=O)N[C@@H](Cc1c[nH]cn1)C(=O)N[C@H](Cc1ccccc1)C(=O)N[C@@H](CCCNC(=N)N)C(=O)N[C@@H](Cc1c[nH]c3ccccc13)C(=O)N2 [Chem. 2, c[c[Cys-Gly-His-D-Phe-Arg-Trp-Cys]- Gly-His-D-Phe-Arg-Trp]] (cyclo(CGH[dF]RWCGH[dF]RW); disulfide 1-7) | 0.07 | 0.01 | 154 | – | – |
| CC(=O)N[C@@H](C)C(=O)N[C@@H](Cc1c[nH]cn1)C(=O)N[C@H](Cc1ccccc1)C(=O)N[C@@H](CCCNC(=N)N)C(=O)N[C@@H](Cc1c[nH]c2ccccc12)C(=O)N[C@@H]1CCSSCCCNC(=O)[C@H](Cc2c[nH]c3ccccc23)NC(=O)[C@H](CCCNC(=N)N)NC(=O)[C@@H](Cc2ccccc2)NC(=O)[C@H](Cc2c[nH]cn2)NC(=O)[C@H](C)NC1=O [Chem. 3, c[c[HCys-Ala-His-D-Phe-Arg-Trp- HCys]-Ala-His-D-Phe-Arg-Trp]] (Ac-AH[dF]RW[d(hCys)]AH[dF]RW; linker 6-C via X1) | 0.42 | 0.26 | 28 | – | – |
| CC(=O)N[C@@H](Cc1c[nH]cn1)C(=O)N[C@H](Cc1ccccc1)C(=O)N[C@@H](CCCNC(=N)N)C(=O)N[C@@H](Cc1c[nH]c2ccccc12)C(=O)N[C@H](C)C(=O)N[C@@H]1CCSSCCCNC(=O)[C@@H](C)NC(=O)[C@H](Cc2c[nH]c3ccccc23)NC(=O)[C@H](CCCNC(=N)N)NC(=O)[C@@H](Cc2ccccc2)NC(=O)[C@H](Cc2c[nH]cn2)NC1=O [Chem. 6, c[c[Cys-His-D-Phe-Arg-Trp-D-Ala- Cys]-His-D-Phe-Arg-Trp-D-Ala]] (Ac-H[dF]RW[dA][d(hCys)]H[dF]RW[dA]; linker 6-C via X1) | 0.19 | 0.06 | 39 | – | – |
| N=C(N)NCCC[C@@H]1NC(=O)[C@@H](Cc2ccccc2)NC(=O)[C@H](Cc2c[nH]cn2)NC(=O)C2(CCC2)NC(=O)[C@@H]2CSSC[C@H](NC(=O)[C@H](Cc3c[nH]c4ccccc34)NC1=O)C(=O)NC1(CCC1)C(=O)N[C@@H](Cc1c[nH]cn1)C(=O)N[C@H](Cc1ccccc1)C(=O)N[C@@H](CCCNC(=N)N)C(=O)N[C@@H](Cc1c[nH]c3ccccc13)C(=O)N2 [Chem. 20, c[c[Cys-ACBC-His-D-Phe-Arg-Trp- Cys]-ACBC-His-D-Phe-Arg-Trp]] (cyclo([Ac4c]H[dF]RWC[Ac4c]H[dF]RWC); disulfide 6-12) | – | – | 124 | 0.15 | 0.04 |
| N=C(N)NCCC[C@@H]1NC(=O)[C@@H](Cc2ccccc2)NC(=O)[C@@H]2C[C@@H](O)CN2C(=O)[C@@H]2CSCSC[C@H](NC(=O)[C@H](Cc3c[nH]c4ccccc34)NC1=O)C(=O)N1C[C@H](O)C[C@H]1C(=O)N[C@H](Cc1ccccc1)C(=O)N[C@@H](CCCNC(=N)N)C(=O)N[C@@H](Cc1c[nH]c3ccccc13)C(=O)N2 [Chem. 26, c[c[Cys-Hyp-D-Phe-Arg-Trp-Cys]- Hyp-D-Phe-Arg-Trp]] (cyclo(C[Hyp][dF]RWC[Hyp][dF]RW); linker 1-6 via CH2) | 0.44 | – | 96 | – | – |
| C[C@@H]1NC(=O)[C@@H]2CSSC[C@H](NC(=O)[C@H](CCCNC(=N)N)NC(=O)[C@H](CCCN)NC(=O)[C@H](CCC(=O)O)NC(=O)[C@H](CCCN)NC1=O)C(=O)N1CSC[C@H]1C(=O)N[C@@H](Cc1c[nH]cn1)C(=O)N[C@H](Cc1ccccc1)C(=O)N[C@@H](Cc1c[nH]cn1)C(=O)N[C@@H](Cc1c[nH]c3ccccc13)C(=O)N2 [Chem. 119, c[c[Cys-THAZ-His-D-Phe-His-Trp- Cys]-Ala-Orn-Glu-Orn-Arg]] (cyclo(A[Orn]E[Orn]RC[Thz]H[dF]HWC); disulfide 6-12) | – | – | 1660 | – | 0.06 |
| C[C@@H]1NC(=O)[C@@H]2CSSC[C@H](NC(=O)[C@H](CCCNC(=N)N)NC(=O)[C@@H](CCCCN)NC(=O)[C@@H](CCCCN)NC(=O)[C@H](Cc3c[nH]cn3)NC1=O)C(=O)N1CCC[C@H]1C(=O)N[C@@H](Cc1c[nH]cn1)C(=O)N[C@H](Cc1ccccc1)C(=O)N[C@@H](Cc1c[nH]cn1)C(=O)N[C@@H](Cc1c[nH]c3ccccc13)C(=O)N2 [Chem. 121, c[c[Cys-Pro-His-D-Phe-His-Trp-Cys]- Ala-His-D-Lys-D-Lys-Arg]] (cyclo(AH[dK][dK]RCPH[dF]HWC); disulfide 6-12) | – | 0.24 | 786 | – | – |

The next lines start with results.

| Ki [1, 3] [nM] | EC50 [2, 4] [nM] | MC1R/MC4R cAMP EC50 ratio [2] | Compound | Ki [1] [nM] | EC50 [2] [nM] |
| --- | --- | --- | --- | --- | --- |
| 0.47 | 0.06 | 76 | C[C@@H]1NC(=O)[C@H](C)NC(=O)[C@H](Cc2c[nH]c3ccccc23)NC(=O)[C@H](CCCNC(=N)N)NC(=O)[C@@H](Cc2ccccc2)NC(=O)[C@H](Cc2c[nH]cn2)NC(=O)[C@H](C)NC(=O)[C@H](C)NC(=O)[C@H](Cc2c[nH]c3ccccc23)NC(=O)[C@H](CCCNC(=N)N)NC(=O)[C@@H](Cc2ccccc2)NC(=O)[C@H](Cc2c[nH]cn2)NC1=O [Chem. 7, c[Ala-Ala-His-D-Phe-Arg-Trp-Ala-Ala- His-D-Phe-Arg-Trp]] (cyclo(AAH[dF]RWAAH[dF]RW)) | – | – |
| 0.12 | 0.09 | 60 | C[C@@H]1NC(=O)[C@@H]2CSSC[C@H](NC(=O)[C@H](Cc3c[nH]c4ccccc34)NC(=O)[C@H](CCCCN)NC(=O)[C@@H](Cc3ccccc3)NC(=O)[C@H](Cc3c[nH]cn3)NC1=O)C(=O)N[C@@H](C)C(=O)N[C@@H](Cc1c[nH]cn1)C(=O)N[C@H](Cc1ccccc1)C(=O)N[C@@H](CCCCN)C(=O)N[C@@H](Cc1c[nH]c3ccccc13)C(=O)N2 [Chem. 15, c[c[Cys-Ala-His-D-Phe-Lys-Trp-Cys]- Ala-His-D-Phe-Lys-Trp]] (cyclo(AH[dF]KWCAH[dF]KWC); disulfide 6-12) | – | – |
| 0.38 | 0.12 | 35 | C[C@@H]1NC(=O)[C@@H]2CSSC[C@H](NC(=O)[C@H](Cc3c[nH]c4ccccc34)NC(=O)[C@H](CCCCN(C)C)NC(=O)[C@@H](Cc3ccccc3)NC(=O)[C@H](Cc3c[nH]cn3)NC1=O)C(=O)N[C@@H](C)C(=O)N[C@@H](Cc1c[nH]cn1)C(=O)N[C@H](Cc1ccccc1)C(=O)N[C@@H](CCCCN(C)C)C(=O)N[C@@H](Cc1c[nH]c3ccccc13)C(=O)N2 [Chem. 18, c[c[Cys-Ala-His-D-Phe-Lys(Me)2-Trp- Cys]-Ala-His-D-Phe-Lys(Me)2-Trp]] | – | – |
| 0.04 | 0.02 | 17 | N=C(N)NCCC[C@@H]1NC(=O)[C@@H](Cc2ccccc2)NC(=O)[C@H](Cc2c[nH]cn2)NC(=O)CCNC(=O)[C@@H]2CSSC[C@H](NC(=O)[C@H](Cc3c[nH]c4ccccc34)NC1=O)C(=O)NCCC(=O)N[C@@H](Cc1c[nH]cn1)C(=O)N[C@H](Cc1ccccc1)C(=O)N[C@@H](CCCNC(=N)N)C(=O)N[C@@H](Cc1c[nH]c3ccccc13)C(=O)N2 [Chem. 25, c[c[Cys-βAla-His-D-Phe-Arg-Trp- Cys]-βAla-His-D-Phe-Arg-Trp]] (cyclo(C[βAla]H[dF]RWC[βAla]H[dF]RW); disulfide 1-7) | – | – |
